Data reported in patent US20200215036A1, “BENZIMIDAZOLE COMPOUNDS AS KINASE INHIBITORS” (GB005, Inc., priority 2017, published 2020).
pIC50: −log10 of the molar value.

How the values were obtained:
BTK = BTK (Homo sapiens, UniProt Q06187); assay: Biochemical kinase assay (Nanosyn, micro-fluidic detection), BTK; settings: 12 concentrations, 3 hours incubation, 1 uM peptide substrate
Procedure: (§1) The in vitro kinase assays were performed at Nanosyn (Santa Clara, Calif.) utilizing micro-fluidic detection Technology. The test compounds were serially pre-diluted in DMSO and added, by the acoustic dispensing (Labcyte® 550), directly to 384we11 assay plates into 10 uL of a buffer with enzyme comprising: 100 mM HEPES, pH7.5, 5 mM MgCl2, 0.1% bovine serum albumin, 1 mM DTT, 0.01% Triton X-100 and the enzyme. Final DMSO concentration was maintained at 1% in all samples, including the controls. The reactions were initiated by addition of ATP (to the specified concentration) and the fluorescently labeled peptide substrate to a final concentration of 1 uM, and incubated for 3 hours at […]. Following incubation, the reactions were quenched by addition of 40 μL of termination buffer (100 mM HEPES, pH7.5, 0.01% Triton X-100, 50 mM EDTA). Terminated plates were analyzed using Caliper LabChip® 3000 microfluidic electrophoresis instrument (Caliper Life Sciences/Perkin Elmer). The enzymatic modification of the peptide substrate (phosphorylation) results in a change of net charge enabling electrophoretic separation of product from substrate. As substrate and product are separated by electrophoresis, two peaks of fluorescence are observed. Change in the relative fluorescence intensity of the substrate and product peaks was the parameter measured, reflecting enzyme activity. In the presence of inhibitor, the ratio between product and substrate is altered: signal of the product decreases, while the signal of the substrate increases. Activity in each test sample was determined as the product to sum ratio (PSR): P/(S+P), where P is the peak height of the product and S is the peak height of the FAM-cAMP substrate. For each compound, enzyme activity was measured at 12 concentrations spaced by 3× dilution intervals. Negative control samples (0%−inhibition in the absence of inhibitor, DMSO only) and positive control samples (100%−inhibition, in the absence of enzyme or in the presence of control inhibitor) were assembled in replicates of four and were used to calculate %−inhibition values in the presence of compounds. Percent inhibition (Pinh) was determined using the following equation: Pinh=(PSR0%−PSRinh)/(PSR0%−PSR100%)*100, where PSRinh is the product sum ratio in the presence of inhibitor, PSR0% is the product sum ratio in the absence of inhibitor and PSR100% is the product sum ratio in 100%-inhibition control samples. To determine IC50 values, the inhibition curves (Pinh versus inhibitor concentration) were fitted by 4 parameter sigmoid dose-response model using XLfit software (IDBS).

TEC = target: T1, TEC (Homo sapiens, UniProt P42680); assay: Biochemical kinase assay (Nanosyn, micro-fluidic detection), TEC; settings: 12 concentrations, 3 hours incubation, 1 uM peptide substrate
T1 sequence (P42680 1-631): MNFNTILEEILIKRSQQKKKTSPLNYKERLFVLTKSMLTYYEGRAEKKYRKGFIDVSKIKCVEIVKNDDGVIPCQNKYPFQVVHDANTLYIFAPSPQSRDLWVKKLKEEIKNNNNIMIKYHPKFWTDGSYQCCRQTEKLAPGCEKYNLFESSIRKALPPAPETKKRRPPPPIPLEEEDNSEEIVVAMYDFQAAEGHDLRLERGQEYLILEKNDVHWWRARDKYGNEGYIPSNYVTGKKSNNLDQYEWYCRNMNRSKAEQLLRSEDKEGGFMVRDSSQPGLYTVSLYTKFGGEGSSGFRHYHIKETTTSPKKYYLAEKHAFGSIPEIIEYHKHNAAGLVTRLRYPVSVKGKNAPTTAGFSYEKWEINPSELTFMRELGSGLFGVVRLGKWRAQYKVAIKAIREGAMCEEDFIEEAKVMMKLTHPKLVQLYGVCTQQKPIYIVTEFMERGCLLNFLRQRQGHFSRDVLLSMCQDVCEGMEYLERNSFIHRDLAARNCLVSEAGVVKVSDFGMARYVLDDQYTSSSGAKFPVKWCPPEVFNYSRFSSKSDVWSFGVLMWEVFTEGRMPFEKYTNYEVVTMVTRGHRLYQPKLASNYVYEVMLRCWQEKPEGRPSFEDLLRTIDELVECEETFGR
Procedure: as §1

TXK = target: T2, TXK (Homo sapiens, UniProt P42681); assay: Biochemical kinase assay (Nanosyn, micro-fluidic detection), TXK; settings: for pIC50: 12 concentrations, 3 hours incubation, 1 uM peptide substrate; for ITK/TXK Ratio: ratio of ITK IC50 to TXK IC50
T2 sequence (P42681 1-527): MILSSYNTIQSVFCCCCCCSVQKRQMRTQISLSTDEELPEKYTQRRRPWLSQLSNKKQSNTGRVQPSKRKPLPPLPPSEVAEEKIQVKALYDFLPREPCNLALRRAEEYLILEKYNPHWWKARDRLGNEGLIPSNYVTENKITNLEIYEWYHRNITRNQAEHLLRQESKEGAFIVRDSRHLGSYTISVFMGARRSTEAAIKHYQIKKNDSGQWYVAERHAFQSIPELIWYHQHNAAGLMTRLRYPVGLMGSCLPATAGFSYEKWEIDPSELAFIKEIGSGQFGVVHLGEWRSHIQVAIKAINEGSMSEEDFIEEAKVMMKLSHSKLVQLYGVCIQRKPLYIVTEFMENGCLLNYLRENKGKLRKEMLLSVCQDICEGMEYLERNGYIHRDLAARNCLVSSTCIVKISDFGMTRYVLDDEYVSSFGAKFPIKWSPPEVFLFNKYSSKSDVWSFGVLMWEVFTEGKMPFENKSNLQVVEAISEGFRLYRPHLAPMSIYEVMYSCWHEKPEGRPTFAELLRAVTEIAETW
Procedure: as §1

ITK = target: T3, ITK (Homo sapiens, UniProt Q08881); assay: Biochemical kinase assay (Nanosyn, micro-fluidic detection), ITK; settings: 12 concentrations, 3 hours incubation, 1 uM peptide substrate
T3 sequence (Q08881 1-620): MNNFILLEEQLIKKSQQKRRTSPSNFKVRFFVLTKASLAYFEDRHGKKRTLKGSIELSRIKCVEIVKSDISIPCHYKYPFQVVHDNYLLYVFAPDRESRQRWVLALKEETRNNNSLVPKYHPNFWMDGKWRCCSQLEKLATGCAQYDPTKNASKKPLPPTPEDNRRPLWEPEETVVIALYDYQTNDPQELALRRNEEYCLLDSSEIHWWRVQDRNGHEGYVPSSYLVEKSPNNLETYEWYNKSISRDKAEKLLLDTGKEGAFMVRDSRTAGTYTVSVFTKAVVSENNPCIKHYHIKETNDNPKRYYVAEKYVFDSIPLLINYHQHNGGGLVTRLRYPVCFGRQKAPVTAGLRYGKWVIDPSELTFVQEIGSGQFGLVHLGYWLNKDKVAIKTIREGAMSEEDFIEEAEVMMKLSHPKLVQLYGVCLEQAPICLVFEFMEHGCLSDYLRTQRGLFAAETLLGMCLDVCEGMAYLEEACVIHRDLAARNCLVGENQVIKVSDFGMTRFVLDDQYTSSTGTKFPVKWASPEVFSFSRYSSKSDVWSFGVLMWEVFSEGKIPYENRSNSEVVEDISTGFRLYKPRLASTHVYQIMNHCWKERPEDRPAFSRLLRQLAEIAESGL
Procedure: as §1

Sequence of BTK (Q06187 whole entry): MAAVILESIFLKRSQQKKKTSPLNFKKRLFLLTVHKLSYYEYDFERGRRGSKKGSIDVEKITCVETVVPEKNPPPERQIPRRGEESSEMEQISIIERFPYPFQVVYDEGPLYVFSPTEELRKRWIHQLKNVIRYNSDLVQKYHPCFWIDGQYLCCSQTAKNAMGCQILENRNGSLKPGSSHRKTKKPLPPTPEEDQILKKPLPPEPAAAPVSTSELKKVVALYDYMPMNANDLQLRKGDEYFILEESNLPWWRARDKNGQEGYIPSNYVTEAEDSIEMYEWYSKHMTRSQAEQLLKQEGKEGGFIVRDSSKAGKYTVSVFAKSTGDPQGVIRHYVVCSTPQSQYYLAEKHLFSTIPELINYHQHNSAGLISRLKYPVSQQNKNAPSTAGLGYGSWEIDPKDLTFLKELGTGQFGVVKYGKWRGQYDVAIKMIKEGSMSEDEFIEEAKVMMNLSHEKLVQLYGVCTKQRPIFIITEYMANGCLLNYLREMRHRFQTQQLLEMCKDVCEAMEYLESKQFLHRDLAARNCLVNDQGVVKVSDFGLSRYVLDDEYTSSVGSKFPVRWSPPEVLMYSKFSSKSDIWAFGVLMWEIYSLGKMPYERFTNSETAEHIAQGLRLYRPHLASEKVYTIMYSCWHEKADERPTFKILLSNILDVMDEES

Row | SMILES | pIC50 (BTK) | pIC50 (TEC) | pIC50 (TXK) | ITK/TXK Ratio (TXK) | pIC50 (ITK)
1 | C=CC(=O)N1CC[C@]2(C1)C[C@H](n1c(NC(=O)c3cc(-c4ccccc4)no3)nc3cc(CN4CCCC4)ccc31)C2 [Compound 8] | 7.59 | 6.87 | 8.71 | 187 | 6.43
2 | C=CC(=O)N1CC[C@]2(C1)C[C@H](n1c(NC(=O)c3cc(C4CCC4)no3)nc3cc(CN4CCCC4)ccc31)C2 [Compound 5] | 8.12 | 7.30 | 8.90 | 461 | 6.24
3 | C=CC(=O)N1CC[C@]2(C1)C[C@H](n1c(NC(=O)c3cc(C)no3)nc3cc(CN4CCCC4)ccc31)C2 [Compound 1] | 7.79 | 7.02 | 8.28 | 24.1 | 6.90
4 | C=CC(=O)N1CC[C@]2(C1)C[C@H](n1c(NC(=O)c3cc(C)no3)nc3cc(CN4CCN(C)CC4)ccc31)C2 [Compound 3] | 7.75 | 7.36 | 8.46 | 23.2 | 7.09
5 | C=CC(=O)N1CC[C@]2(C1)C[C@H](n1c(NC(=O)c3cc(C(C)C)no3)nc3cc(CN4CCCC4)ccc31)C2 [Compound 4] | 7.92 | 7.02 | 8.85 | 390 | 6.26
6 | C=CC(=O)N1CC[C@]2(C1)C[C@H](n1c(NC(=O)c3cc(C4CCCCC4)no3)nc3cc(CN4CCCC4)ccc31)C2 [Compound 6] | 8.00 | 6.98 | 8.75 | >561 | < 6.00
7 | C=CC(=O)N1CC[C@]2(C1)C[C@H](n1c(NC(=O)c3cc(C(C)(C)C)no3)nc3cc(CN4CCCC4)ccc31)C2 [Compound 7] | 7.22 | 6.28 | 8.30 | – | 6.27
8 | C=CC(=O)N1CC[C@]2(C1)C[C@H](n1c(NC(=O)c3cc(C)no3)nc3cc(CN4CCOCC4)ccc31)C2 [Compound 2] | 7.83 | 7.95 | 8.52 | 13.5 | 7.39
